Molecules are shown by their SMILES.

In the assay the target is mushroom tyrosinase. Kind of assay: mushroom tyrosinase (Sigma) enzyme inhibition assay. The assay is classed as biochemical.

Consider `CC(=O)c1ccc(N2C(=S)NC(C)(C)C=C2C)cc1` [compound 4, 1-(4-(4,4,6-trimethyl-2-thioxo-3,4-dihydropyrimidin-1(2H)-yl)phenyl)ethan-1-one], for which the 50% inhibitory concentration (IC50) stood at 1980 nM. This counts as single-digit micromolar.
